Assay results: patent US20250243267A1, “COMBINATION OF A GREMLIN-1 ANTAGONIST WITH A CYTIDINE ANALOGUE OR DEOXYCYTIDINE ANALOGUE” (UCB BIOPHARMA SRL, priority 2022, published 2025)
Several values for one entry are separate records, joined by “and”; a condition that tells them apart may be missing. Equal entries are not always repeated.

Tested on: LSL-KrasG12D/+; LSL-Trp53R172H/+; Pdx1-Cre (KPC) mouse model of pancreatic cancer
Assay: Survival of KPC mice with pancreatic cancer from start of treatment (Kaplan-Meier, Log-Rank)
Assay type: in vivo
Description: • Test antibody and drug Anti-gremlin-1 antibody-Ab7326 mlgG1-APP.4405.IgG.mFc-Lot number-PB 4682 • Vehicle-Phosphate Buffered Saline pH 7.4 (provided by the Beatson Institute) • Gemcitabine-(provided by the Beatson Institute, purchased from LC Labs, Woburn, MA, USA) in Phosphate Buffered Saline pH 7.4. • Genetically Modified Mice • LSL-Kras^G12D/+; Trp53^R172H/+; Pdx1-Cre (KPC) mice have been described previously (Hingorani et al., 2005). Mice were generated by crossing mice bearing Pdx1-Cre, and conditional LSL-KrasG12D or LSL-Trp53R172H alleles (strains 01XJ6 and 01XL9, Mouse Models of Human Cancer Consortium [MMHCC], NCI-Frederick, Frederick, MD, USA). Mice on a mixed background were bred in-house at the CRUK Beatson Institute and maintained in conventional caging with environmental enrichment, access to standard chow and water ad libitum. Genotyping was performed by Transnetyx (Cordoba, TN, USA). Mice of both sexes were recruited onto study. All animal experiments were performed under a UK Home Office licence and approved by the University of Glasgow Animal Welfare and Ethical Review Board.
Mice were monitored 3 times weekly until a diagnosis of pancreatic cancer was made by abdominal palpation and confirmed by ultrasound imaging. […] Mice were monitored daily and sacrificed when reaching ethical endpoint (symptoms include abdominal distension, cachexia, intermittent hunching or reduced mobility, piloerection, mild diarrhoea, anaemia). […]
Next, the efficacy of gremlin-1 inhibition as a potential therapeutic approach for pancreatic cancer was tested in the KPC model. […] A cohort of KPC mice was established and mice were monitored until they developed pancreatic cancer detectable by palpation.
Mice were monitored at least weekly by palpation until pancreatic tumours were detectable. […] Mice remained on study and were closely monitored until ethical endpoint was reached, at which time they were sacrificed as per institutional guidelines.

In the case of Nc1ccn([C@@H]2O[C@H](CO)[C@@H](O)C2(F)F)c(=O)n1 [Gemcitabine, 2′-deoxy-2′,2′-difluorocytidine, reference compound], the “survival compared with vehicle controls” value (KPC mice, result in words) is reported as “negligible benefit”, the “Median (days) survival” value (KPC mice, survival from start of treatment, dosing twice weekly (Ab7326 mlgG1 30 mg/kg s.c.; gemcitabine 100 mg/kg i.p.)) is reported as 24 days and the “Days on Rx (individual mice)” value (one value per KPC mouse, * denotes smaller than average tumour at start of treatment) is reported as 3 days and 34 days and 24 days and 44 days and 17 days.
